Assay results taken from patent US20070026478A1, “Hemiasterlin affinity probes and their uses” (WYETH, priority 2002, published 2007).
Where a name gives a salt, the structure may show the parent alone. Read-outs that look alike come from different tables or passages of the source. Marks after values point to notes of the source that are not given here.

Experiments:
[1] = biological target: T1, tubulin in whole KB-3-1 cells (Homo sapiens, UniProt P07437+P68363); assay: Probe 1 photolabeling in whole KB-3-1 cells; type: cell-based; conditions: 250 μM pre-incubation at 37° C. for 15 minutes
T1 construct: a cytosolic preparation of KB-3-1 cell lysates (50 μg) or KB-3-1 cells (40,000 cells) were used in the place of purified tubulin; endogenous in cells; host or cells: KB-3-1 cells (cytosolic supernatant at 100,000 x g, or whole cells)
Procedure: (§1) Alternatively, a cytosolic preparation of KB-3-1 cell lysates (50 μg) or KB-3-1 cells (40,000 cells) were used in the place of purified tubulin above. The supernatant of mechanically disrupted cells centrifuged at 100,000×g was used as a cytosolic preparation. K-3-1 cells were prepared by growing KB-3-1 cells in a 96-well plate and rinsing them with serum free medium. For experiments with whole cells, 250 μM HTI-286 was used as the competitor molecule during pre-incubation at 37° C. for 15 minutes.
Samples were irradiated at 360 nm with a Mineralight lamp (UVP, Upland, Calif.) for 30 minutes (for Probe 1), 2 hours (for whole cells with Probe 1), or 2 hours (for Probe 2) at 4° C., unless otherwise noted. Radiation of the benzophenone moiety at this wavelength effectively activates the photoprobe with minimal destruction of protein compared to the shorter wavelengths typically used for azido-containing photoprobes (see, Williams et al., Methods Enzymol. 1986, 126:667-682). If whole cells were used, Laemmli sample buffer was then added to lyse the cells.

tubulin [2] = biological target: T2, tubulin (Bos taurus, UniProt P81947+Q6B856); assay: Competition of [3H]-Probe 2 photolabeling of tubulin; type: binding, bovine; conditions: 100 μM competitor, 2.5 μM tubulin, 0.25 μM [3H]-Probe 2, room temperature
T2 construct: MAP-rich bovine brain tubulin (99% purity), Hela cell tubulin (90% purity); purchased Cytoskeleton (Denver, Colo.); host or cells: bovine brain
Procedure: as §1, with “medium.” for “medium. For experiments with whole cells, 250 μM HTI-286 was used as the competitor molecule during pre-incubation at 37° C. for 15 minutes.”
Competition binding experiments were performed as described in Section 7.1.5. […] Samples were then irradiated for 2 hours at 4° C. and evaluated by SDS-PAGE and fluorography.

KB cells = assay: Cell proliferation assay in tissue culture (SRB); type: cell-based; conditions: Homo sapiens, KB, 72 h
Procedure: Cell proliferation studies were performed according to procedures described by Loganzo et al. (Cancer Res. 2003, 63:1838-1845). Briefly, KB cells were plated in 96-well plates in 100 μL media at densities pre-determined to produce 60-90% confluence at the time of analysis. Compounds, which were serially diluted into media as 2× stocks, were added to cells in duplicate. After 72 hours of incubation, cell survival was assayed by the SRB assay as described (Rabindran et al., C. Cancer Res. 1998, 58:5850-5858). IC50 values (i.e. the concentration of drug needed to inhibit cell growth by 50%) were used to evaluate drug potency.

bovine MAP-rich tubulin = biological target: T3, bovine MAP-rich tubulin (Bos taurus, UniProt P81947+Q6B856); assay: Tubulin polymerization assay in a cell-free system; type: biochemical; conditions: 0.3 μM compound
T3 construct: MAP-rich bovine brain tubulin (99% purity), Hela cell tubulin (90% purity); purchased Cytoskeleton (Denver, Colo.); host or cells: bovine brain
Procedure: In vitro tubulin polymerization assays were performed according to procedures that have been described elsewhere (Loganzo et al., Cancer Res. 2003, 63:1838-1845). Briefly, bovine MAP-rich tubulin (final concentration 1.5 mg/mL) was dissolved in cold PEM buffer containing 1 mM GTP (GPEM) and centrifuged at 12,000×g for 10 minutes at 4° C. The tubulin solution (100 μL/well) was added rapidly to wells of a low-volume, 96-well plate already containing duplicate aliquots (10 μL) of test compounds in GPEM. Final compound concentrations were 0.3 μM. Control wells contained the same final concentration of DMSO (0.3%). After initiation of the reaction, absorbance at 340 nm was measured every minute for 60 minutes at 24° C. using a SpectraMax Plus plate reader (Molecular Devices, Sunnyvale, Calif.). An increase in absorbance over time indicated an increase in turbidity resulting from tubulin polymerization.

α-tubulin = biological target: T4, α-tubulin (Bos taurus, UniProt P81947+Q6B856); assay: Subtilisin digestion of tubulin after incubation with various compounds; type: biochemical, bovine; conditions: 50 μM drug, subtilisin up to 60 min at room temperature
T4 construct: MAP-rich bovine brain tubulin (99% purity), Hela cell tubulin (90% purity); purchased Cytoskeleton (Denver, Colo.); host or cells: bovine brain
Procedure: Tubulin (5 μg) was incubated with 50 μM drug at room temperature for 25 minutes and then digested under native conditions with subtilisin (0.05 μg) for 0, 5, 10, 15, 30 and 60 min at room temperature. Enzymatic digestion was stopped with 1 mM PMSF and samples were resolved by SDS-PAGE under conditions that allowed separation of α- and β-tubulin subunits. Gels were then fixed and stained with Coomassie blue.

tubulin [3] = biological target: T2, tubulin; assay: Separation of polymerized and free tubulin by centrifugation; type: biochemical, bovine; conditions: 50 μM drug, centrifugation at 10,000 g and 100,000 g
Procedure: Tubulin (5 μg) was incubated with 50 μM drug at room temperature for 25 minutes and then centrifuged at either 10,000 g for 15 minutes in a tabletop microfuge or at 100,000 g for 15 minutes in an airfuge. The supernatant was carefully removed to a fresh tube to obtain free tubulin and the pellet was solubilized in SDS-PAGE sample buffer.

P-glycoprotein = P-glycoprotein (Homo sapiens, UniProt P08183); conditions: Loganzo et al., Cancer Res. 2003; cited from earlier work
bovine brain tubulin [4] = biological target: T5, bovine brain tubulin (Bos taurus, UniProt P81947+Q6B856); assay: Competition of [3H]-Probe 1 photolabeling of tubulin; type: binding; conditions: for inhibition of incorporation of radiolabeled Probe 1 into α-tubulin: 1 mM competitor, 37° C. incubation; for Probe 1 photolabeling of tubulin (% of no-competitor control): control (no competitor) = 100
T5 construct: MAP-rich bovine brain tubulin (99% purity), Hela cell tubulin (90% purity); purchased Cytoskeleton (Denver, Colo.); host or cells: bovine brain
Procedure: as §1, with “medium.” for “medium. For experiments with whole cells, 250 μM HTI-286 was used as the competitor molecule during pre-incubation at 37° C. for 15 minutes.”
If whole cells were used, Laemmli sample buffer was then added to lyse the cells.
Low grade SDS (Sigma, catalog No. L5750) was used in the running buffer, when needed, to allow separation of α and β-tubulin subunits. Gels were fixed, stained with Coomassie blue from BioRad (Hercules, Calif.) to ensure equal loading of protein, and sliced. […] Alternatively, gels were incubated with EN^3HANCE according to the manufacturer's instructions (Life Sciences Products, Inc.), washed, and dried prior to exposure of the gel to Biomax MX film from Kodak (Rochester, N.Y.) for fluorography.
After incubation for 30 minutes at 37° C., samples were irradiated with 360 nm UV light for 30 minutes and separated by SDS-PAGE. Gels were exposed to film using fluorographic techniques.
In particular, photolabeling experiments were performed as described in section 7.1.5 above, at both room temperature and at 37° C.

bovine brain tubulin [5] = biological target: T5, bovine brain tubulin; assay: Reversible binding affinity assay (tubulin fluorescence)
Procedure: The affinity of both HTI-286 and of non-radiolabled Probe 1 and Probe 2, to bovine brain tubulin was determined by previously published methods (Krishnamurthy et al., Biochem., submitted). Briefly, 5 mg/mL […] tubulin prepared in PEM buffer was pre-incubated with buffer or varying concentrations of test agents in individual quartz cuvettes. The intrinsic tryptophan fluorescence of tubulin (excitation at 560 nm and maximal emission at 580 nm) was measured after pre-incubation for 90 minutes. The change in fluorescence intensity at 580 nm in the presence of compound was fitted to a quadratic equation to obtain apparent dissociation constants (KD) of the test agents.

## CN[C@H](C(=O)N[C@H](C(=O)N(C)[C@H](/C=C(\C)C(=O)O)C(C)C)C(C)(C)C)C(C)(C)c1ccccc1 [HTI-286, N,β,β-trimethyl-L-phenylalany-N^1[(1S,2E)-3-carboxy-1-isopropylbut-2-enyl]-N^1,3-dimethyl-L-valinamide trifluoroacetate]
[1]
  competition of radiolabeled Probe 1 labeling in whole cells: eliminates the specific labeling of the 50 kDa tubulin band
Tubulin [2]
  inhibition of Probe 2 labeling of tubulin: 45%
KB cells
  IC50: 0.96 nM
Bovine MAP-rich tubulin
  inhibition at 0.3 µM: 88%
Bovine MAP-rich tubulin; 0.3 µM
  tubulin polymerization (% inhibition): 87.5 ± 12.2 (n = 49) %
α-tubulin
  protection of α-tubulin from subtilisin cleavage: unable to cleave α-tubulin even after 60 minutes
Tubulin [3]
  protein recovered in pellet fractions (tubulin aggregation): no significant protein was recovered
P-glycoprotein
  interaction with P-glycoprotein: weak interaction
Bovine brain tubulin [4]; 0.25 μM radiolabeled Probe 1, 2.5 μM tubulin
  inhibition of incorporation of radiolabeled Probe 1 into α-tubulin: completely inhibits
Bovine brain tubulin [4]; 2.5 μM radiolabeled Probe 1, 2.5 μM tubulin
  inhibition of incorporation of radiolabeled Probe 1 into α-tubulin: more than 50%
Bovine brain tubulin [4]; 37° C.
  reduction of Probe 1 photolabeling of tubulin: about 50%
Bovine brain tubulin [4]; 37° C., 100 μM competitor
  Probe 1 photolabeling of tubulin (% of no-competitor control): 47^† %
Bovine brain tubulin [4]; Room Temp., 2.5 μM tubulin, 0.25 μM radiolabeled Probe 1, 100 μM competitor
  Probe 1 photolabeling of tubulin (% of no-competitor control): 27 ± 4%
Bovine brain tubulin [4]; room temperature, 2.5 μM tubulin, 0.25 μM radiolabeled Probe 1, read-out: IC50 for inhibition of Probe 1 photolabeling of tubulin
  IC50: 7000 nM
Bovine brain tubulin [4]; room temperature, 400-fold molar excess (100 μM) competitor, 2.5 μM tubulin, 0.25 μM radiolabeled Probe 1
  reduction of Probe 1 photolabeling of tubulin: approximately 72%
Bovine brain tubulin [5]; Table 1, binding to bovine brain tubulin, read-out: KD
  Kd: 400 to 800 nM
Bovine brain tubulin [5]; rhodamine-labeled tubulin, 90 minutes pre-incubation, read-out: apparent binding constant (KD), fluorescence method
  Kd: 600 nM
